Assay results taken from patent US20110112124A1, “FUNGICIDAL COMPOSITIONS” (SYNGENTA CROP PROTECTION, INC., priority 2008, published 2011).
Like-named read-outs stand apart in the source and are kept apart here.

Experiments:
[1] = test system: Botryotinia fuckeliana (Botrytis cinerea); assay: Example B16: liquid culture test, gray mould; assay type: cell-based
[2] = test system: Thanatephorus cucumeris (Rhizoctonia solani); assay: Example B15: liquid culture test, foot rot, damping-off; assay type: cell-based
[3] = test system: Mycosphaerella graminicola (Septoria tritici); assay: Example B13: liquid culture test, Septoria blotch; assay type: cell-based
[4] = test system: Sclerotinia sclerotiorum; assay: Example B8: liquid culture test, cottony rot; assay type: cell-based
[5] = test system: Tapesia yallundae W-type (Pseudocercosporella herpotrichoides); assay: Example B5: liquid culture test, eyespot; assay type: cell-based
[6] = test system: Mycosphaerella graminicola (Septoria tritici); assay: Example B6: liquid culture test, Septoria blotch; assay type: cell-based
[7] = test system: Plasmopara viticola; assay: Example B18: grape leaf disc preventative test
Method: Leaf disks or leaf segments of various plant species were cut from plants grown in the greenhouse. The cut leaf disks or segments were placed in multiwell plates (24-well format) onto water agar. The leaf disks were sprayed with a test solution before (preventative) or after (curative) inoculation. Compounds to be tested were prepared as DMSO solutions (max. 10 mg/ml) which were diluted to the appropriate concentration with 0.025% Tween20 just before spraying. The inoculated leaf disks or segments were incubated under defined conditions (temperature, relative humidity, light, etc.) according to the respective test system. A single evaluation of disease level was carried out 3-9 days after inoculation, depending on the pathosystem. Percent disease control relative to the untreated check leaf disks or segments was then calculated.
The leaf disks were inoculated with a spore suspension of the fungus 1 day after application. The inoculated leaf disks were incubated at 19° C. and 80% rh under a light regime of 12 h light/12 h darkness in a climate cabinet and the activity of a compound was assessed as percent disease control compared to untreated when an appropriate level of disease damage appears in untreated check leaf disks (6-8 days after application).

[8] = test system: Mycosphaerella graminicola (Septoria tritici); assay: Example B17: liquid culture test, Septoria blotch; assay type: cell-based
[9] = test system: Tapesia yallundae W-type (Pseudocercosporella herpotrichoides); assay: Example B7: liquid culture test, eyespot; assay type: cell-based
[10] = test system: Tapesia yallundae W-type (Pseudocercosporella herpotrichoides); assay: Example B14: liquid culture test, eyespot; assay type: cell-based
[11] = test system: Botryotinia fuckeliana (Botrytis cinerea); assay: Example B1: liquid culture test, gray mould; assay type: cell-based
[12] = test system: Botryotinia fuckeliana (Botrytis cinerea); assay: Example B11: liquid culture test, gray mould; assay type: cell-based
[13] = test system: Pythium ultimum; assay: Example B2: liquid culture test, seedling damping off; assay type: cell-based
[14] = test system: Mycosphaerella graminicola (Septoria tritici); assay: Example B9: liquid culture test, Septoria blotch; assay type: cell-based
[15] = test system: Mycosphaerella arachidis (Cercospora arachidicola); assay: Example B4: liquid culture test, early leaf spot; assay type: cell-based
[16] = test system: Tapesia yallundae W-type (Pseudocercosporella herpotrichoides); assay: Example B10: liquid culture test, eyespot; assay type: cell-based
[17] = test system: Sclerotinia sclerotiorum; assay: Example B3: liquid culture test, cottony rot; assay type: cell-based
[18] = test system: Fusarium culmorum; assay type: cell-based

## COC(c1ccc(Cl)cc1Cl)C(C)NC(=O)c1cn(C)nc1C(F)F (racemic) [Comp. 1.001, 3-difluoromethyl-1-methyl-1H-pyrazole-4-carboxylic acid [2-(2,4-dichlorophenyl)-2-methoxy-1-methyl-ethyl]-amide]
[1]; 0.016 ppm
  % action: 0%
[1]; 0.031 ppm
  % action: 0%
[1]; 0.063 ppm
  % action: 20%
[1]; 0.125 ppm
  % action: 20%
[2]; 0.250 ppm
  % action: 0%
[2]; 0.500 ppm
  % action: 0%
[2]; 1.000 ppm
  % action: 0%
[2]; 2.000 ppm
  % action: 0%
[3]; 0.078 ppm
  % action: 20%
[3]; 0.156 ppm
  % action: 70%
[4]; 0.078 ppm
  % action: 0%
[4]; 0.156 ppm
  % action: 0%
[4]; 0.313 ppm
  % action: 20%
[4]; 0.625 ppm
  % action: 50%
[4]; 1.250 ppm
  % action: 70%
[5]; 0.156 ppm
  % action: 0%
[5]; 0.313 ppm
  % action: 20%
[5]; 0.625 ppm
  % action: 50%
[5]; 1.250 ppm
  % action: 70%
[6]; 0.156 ppm
  % action: 70%
[6]; 0.313 ppm
  % action: 90%
[7]; 0.625 ppm
  % action: 0%
[7]; 1.250 ppm
  % action: 0%
[7]; 2.500 ppm
  % action: 0%
[7]; 5.000 ppm
  % action: 7%
[7]; 10.000 ppm
  % action: 0%
[8]; 0.016 ppm
  % action: 0%
[8]; 0.031 ppm
  % action: 0%
[8]; 0.063 ppm
  % action: 20%
[8]; 0.125 ppm
  % action: 50%
[9]; 0.039 ppm
  % action: 0%
[9]; 0.078 ppm
  % action: 0%
[9]; 0.156 ppm
  % action: 20%
[9]; 0.313 ppm
  % action: 20%
[9]; 0.625 ppm
  % action: 50%
[9]; 1.250 ppm
  % action: 70%
[10]; 0.156 ppm
  % action: 20%
[10]; 0.313 ppm
  % action: 20%
[10]; 0.625 ppm
  % action: 50%
[10]; 1.250 ppm
  % action: 70%
[11]; 0.063 ppm
  % action: 20%
[11]; 0.125 ppm
  % action: 20%
[11]; 0.250 ppm
  % action: 50%
[11]; 0.500 ppm
  % action: 50%
[11]; 1.000 ppm
  % action: 70%
[12]; 0.031 ppm
  % action: 0%
[12]; 0.063 ppm
  % action: 0%
[12]; 0.125 ppm
  % action: 20%
[12]; 0.250 ppm
  % action: 20%
[12]; 0.500 ppm
  % action: 50%
[13]; 2.500 ppm
  % action: 0%
[13]; 5.000 ppm
  % action: 0%
[13]; 10.000 ppm
  % action: 0%
[13]; 20.000 ppm
  % action: 0%
[14]; 0.078 ppm
  % action: 20%
[14]; 0.156 ppm
  % action: 70%
[15]; 0.039 ppm
  % action: 0%
[15]; 0.078 ppm
  % action: 20%
[16]; 0.078 ppm
  % action: 0%
[16]; 0.156 ppm
  % action: 0%
[16]; 0.313 ppm
  % action: 20%
[16]; 0.625 ppm
  % action: 20%
[16]; 1.250 ppm
  % action: 50%
[17]; 0.313 ppm
  % action: 20%
[17]; 0.625 ppm
  % action: 50%
[17]; 1.250 ppm
  % action: 70%
[18]; 0.063 ppm
  % action: 0%
[18]; 0.125 ppm
  % action: 0%
[18]; 0.250 ppm
  % action: 0%
[18]; 0.500 ppm
  % action: 0%
[18]; 1.000 ppm
  % action: 0%
[18]; 2.000 ppm
  % action: 20%

## CO/C=C(/C(=O)OC)c1ccccc1Oc1cc(Oc2ccccc2C#N)ncn1 [Azoxystrobin, azoxystrobin]
[5]; 0.078 ppm
  % action: 0%
[5]; 0.156 ppm
  % action: 0%
[5]; 0.313 ppm
  % action: 20%
[5]; 0.625 ppm
  % action: 20%
[5]; 1.250 ppm
  % action: 20%
[5]; 2.500 ppm
  % action: 20%
[5]; 5.000 ppm
  % action: 20%
[11]; 0.063 ppm
  % action: 0%
[11]; 0.125 ppm
  % action: 20%
[11]; 0.250 ppm
  % action: 20%
[11]; 0.500 ppm
  % action: 50%
[11]; 1.000 ppm
  % action: 50%
[11]; 2.000 ppm
  % action: 50%
[13]; 10.000 ppm
  % action: 50%
[13]; 20.000 ppm
  % action: 70%
[15]; 0.039 ppm
  % action: 20%
[15]; 0.078 ppm
  % action: 50%
[15]; 0.156 ppm
  % action: 70%
[17]; 0.625 ppm
  % action: 0%
[17]; 1.250 ppm
  % action: 20%
[17]; 2.500 ppm
  % action: 20%
[17]; 5.000 ppm
  % action: 50%

## N#Cc1c(Cl)c(Cl)c(Cl)c(C#N)c1Cl [Chlorothalonil, chlorothalonil, reference compound]
[4]; 0.156 ppm
  % action: 0%
[4]; 0.313 ppm
  % action: 20%
[4]; 0.625 ppm
  % action: 90%
[14]; 0.078 ppm
  % action: 20%
[14]; 0.156 ppm
  % action: 50%
[16]; 0.156 ppm
  % action: 20%
[16]; 0.313 ppm
  % action: 20%

## Cc1cc(C2CC2)nc(Nc2ccccc2)n1 [Cyprodinil, cyprodinil]
[6]; 0.156 ppm
  % action: 0%
[6]; 0.313 ppm
  % action: 0%
[6]; 0.625 ppm
  % action: 0%
[6]; 1.250 ppm
  % action: 0%
[9]; 0.039 ppm
  % action: 0%
[9]; 0.078 ppm
  % action: 0%
[9]; 0.156 ppm
  % action: 0%
[9]; 0.313 ppm
  % action: 0%
[9]; 0.625 ppm
  % action: 0%
[9]; 1.250 ppm
  % action: 0%
[9]; 2.500 ppm
  % action: 0%
[9]; 5.000 ppm
  % action: 0%

## N#Cc1c[nH]cc1-c1cccc2c1OC(F)(F)O2 [Fludioxonil, fludioxonil, reference compound]
[12]; 0.063 ppm
  % action: 20%
[12]; 0.125 ppm
  % action: 70%
[18]; 0.250 ppm
  % action: 20%
[18]; 0.500 ppm
  % action: 70%

## C#CCOc1ccc(CCNC(=O)C(OCC#C)c2ccc(Cl)cc2)cc1OC (stereo not drawn) [Mandipropamid, mandipropamid, reference compound]
[7]; 0.625 ppm
  % action: 30%
[7]; 1.250 ppm
  % action: 37%
[7]; 2.500 ppm
  % action: 67%

## CCCC(Cn1cncn1)c1ccc(Cl)cc1Cl (stereo not drawn) [Penconazole, penconazole]
[3]; 0.078 ppm
  % action: 0%
[3]; 0.156 ppm
  % action: 0%
[3]; 0.313 ppm
  % action: 0%
[3]; 0.625 ppm
  % action: 20%

## CC(C)(C)C(O)(CCc1ccc(Cl)cc1)Cn1cncn1 (stereo not drawn) [Tebuconazol, tebuconazole, reference compound]
[10]; 0.625 ppm
  % action: 20%

## CC(C)C1C2CCC1c1c(NC(=O)c3cn(C)nc3C(F)F)cccc12 (stereo not drawn) [isopyrazam, reference compound]
[1]; 0.031 ppm
  % action: 20%
[1]; 0.063 ppm
  % action: 20%
[2]; 0.125 ppm
  % action: 50%
[2]; 0.250 ppm
  % action: 70%
[2]; 0.500 ppm
  % action: 70%
[2]; 1.000 ppm
  % action: 70%
[2]; 2.000 ppm
  % action: 70%
[8]; 0.031 ppm
  % action: 0%
[8]; 0.063 ppm
  % action: 20%
[8]; 0.125 ppm
  % action: 70%
